This is an account of results in patent US8715731B2, “Process of reducing the bitter taste of water soluble actives by co-grinding the active with β cyclodextrin” (ISP Investments Inc., priority 2006, dated 2014).

This data set is described as follows: physchem. As to conditions: water. As for the experimental part:
The degree of formation of an inclusion complex between the drug and β-cyclodextrin was determined quantitatively by Differential Scanning Calorimetry (DSC).

In brackets after ≈: the same amount, converted by molar mass.

With `NC(N)=Nc1nc(CSCCC(N)=NS(N)(=O)=O)cs1` [famotidine], the solubility turned out to be 1 mg/mL (≈ 2960 µM).

For orientation: solubility means how much of the substance goes into solution per volume. Lower therefore signals little dissolved substance.
